Legend:
A375 (Melanoma) = test: Bliss excess, mean over the matrix (fraction); higher = more synergy
Outline: (§1)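 After 24 hours at 37°C and 5% CO2 in 1536-well plates, cells in DMEM/F12 or RPMI plus 10% FBS received two-drug dose matrices for 72 hours. Viability came from CellTiter-Glo 2.0 luminescence and was scaled as inhibition, anchored at 0 by vehicle wells and at 1 by blank wells. Combination Emax is taken as the second-highest inhibition in the matrix, and Bliss excess as the observed combination effect less EA + EB − EA·EB, with EA and EB the single-agent effects.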

[1] = tested on: OCI-M1 (Acute Myeloid Leukemia); test: as above
Outline: as §1

[2] = tested on: HT-1197 (Bladder Carcinoma); test: as above
Outline: as §1

RVH-421 (Melanoma) [3] = test: as above
Outline: as §1

[4] = tested on: NCI-H2009 (Lung Adenocarcinoma); test: as above
Outline: as §1

C32 (Melanoma) = test: as above
Outline: as §1

[5] = tested on: JJN-3 (Plasma Cell Myeloma); test: as above
Outline: as §1

GCIY (Gastric Carcinoma) = test: as above
Outline: as §1

[6] = tested on: COR-L105 (Lung Adenocarcinoma); test: as above
Outline: as §1

SK-MEL-24 (Melanoma) = test: as above
Outline: as §1

DK-MG (Glioblastoma) = test: as above
Outline: as §1

[7] = tested on: HT-3 (Cervical Carcinoma); test: as above
Outline: as §1

[8] = tested on: SNU-1 (Gastric Carcinoma); test: as above
Outline: as §1

[9] = tested on: C2BBe1 (Colorectal Carcinoma); test: as above
Outline: as §1

[10] = tested on: TK (B-Cell Non-Hodgkin's Lymphoma); test: as above
Outline: as §1

[11] = tested on: NCI-H1435 (Non-Small Cell Lung Carcinoma); test: as above
Outline: as §1

[12] = tested on: MDA-MB-175-VII (Breast Carcinoma); test: as above
Outline: as §1

RVH-421 (Melanoma) [13] = test: combination Emax (second highest fraction inhibited in the dose matrix, 72 h); higher = more inhibition; extreme values may be limits of the assay
Outline: as §1
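For Bliss excess, mean over the matrix in this document: after 72 h of two-drug dosing.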

| SMILES | Bliss excess (A375 (Melanoma)) | Bliss excess [1] | Bliss excess [2] | Bliss excess (RVH-421 (Melanoma) [3]) | Bliss excess [4] | Bliss excess (C32 (Melanoma)) | Bliss excess [5] | Bliss excess (GCIY (Gastric Carcinoma)) | Bliss excess [6] | Bliss excess (SK-MEL-24 (Melanoma)) | Bliss excess (DK-MG (Glioblastoma)) | Bliss excess [7] | Bliss excess [8] | Bliss excess [9] | Bliss excess [10] | Bliss excess [11] | Bliss excess [12] | combination Emax (RVH-421 (Melanoma) [13]) |
| --- | --- | --- | --- | --- | --- | --- | --- | --- | --- | --- | --- | --- | --- | --- | --- | --- | --- | --- |
| CN(CCO)CC[C@H](CSc1ccccc1)Nc1ccc(S(=O)(=O)NC(=O)c2ccc(N3CCC([C@@H](O)c4ccccc4-c4ccc(Cl)cc4)CC3)cc2)cc1S(=O)(=O)C(F)(F)F [AZD4320] + C[C@@H]1COCCN1C2=NC(=NC(=C2)C3(CC3)[S@](=N)(=O)C)C4=C5C=CNC5=NC=C4 [AZD6738] (first compound max 1 µM, 7x7, partner max 10 µM) | -0.0221 | 0.0051 | -0.0672 | -0.0511 | -0.0099 | 0.0653 | 0.0041 | 0.0264 | -0.0711 | -0.0584 | -0.0439 | -0.0285 | -0.0343 | -0.14 | 0.0338 | 0.0366 | -0.0429 | 0.387 |
| N#Cc1cnc(Nc2cc(NC[C@H]3CNCCO3)c(C(F)(F)F)cn2)cn1 [SRA737] + C=CCn1c(=O)c2cnc(Nc3ccc(N4CCN(C)CC4)cc3)nc2n1-c1cccc(C(C)(C)O)n1 [AZD1775] (first compound max 10 µM, partner max 1 µM) | 0.0455 | – | – | – | -0.011 | 0.0397 | – | 0.033 | 0.031 | -0.0375 | – | – | – | – | – | 0.0093 | -0.0073 | – |
| C[C@@H](c1ccc2nccn2c1)n1nnc2ncc(-c3cnn(C)c3)nc21 [Savolitinib] + Cc1c2c(nn1C)CSCc1cc(n(C)n1)CSc1cc(c3ccccc3c1)OCCCc1c(C(=O)O)n(C)c3c-2c(Cl)ccc13 [AZD5991] (first compound max 1 µM, 7x7, partner max 1 µM) | -0.0271 | 0.0026 | -0.0356 | – | -0.0063 | -0.0065 | -0.0384 | -0.0423 | -0.0086 | -0.0519 | -0.0226 | -0.0255 | 0.0005 | -0.0455 | -0.0262 | -0.0263 | -0.0244 | – |
| Cc1cc2ncnn2cc1Nc1ncc2c(n1)n(C1CCOCC1)c(=O)n2C [AZD7648] + C[C@@H]1COCCN1C2=NC(=NC(=C2)C3(CC3)[S@](=N)(=O)C)C4=C5C=CNC5=NC=C4 [AZD6738] (first compound max 10 µM, 7x7, partner max 10 µM) | 0.0301 | 0.0125 | -0.0226 | 0.0381 | 0.0494 | -0.0021 | -0.0051 | 0.0524 | -0.0511 | 0.0523 | 0.0297 | 0.0076 | -0.013 | 0.0209 | -0.0185 | 0.0536 | 0.0441 | 0.322 |
| CN(CCO)CC[C@H](CSc1ccccc1)Nc1ccc(S(=O)(=O)NC(=O)c2ccc(N3CCC([C@@H](O)c4ccccc4-c4ccc(Cl)cc4)CC3)cc2)cc1S(=O)(=O)C(F)(F)F [AZD4320] + CCN(CCO)CCCOc1ccc2c(Nc3cc(CC(=O)Nc4cccc(F)c4)[nH]n3)ncnc2c1 [AZD2811] (first compound max 1 µM, 7x7, partner max 1 µM) | 0.0107 | 0.0074 | -0.016 | -0.0297 | -0.0461 | 0.114 | 0.151 | -0.0067 | -0.0523 | -0.0647 | -0.0213 | – | 0.0461 | -0.0326 | 0.129 | 0.004 | 0.0289 | 0.196 |
| Cc1cc2ncnn2cc1Nc1ncc2c(n1)n(C1CCOCC1)c(=O)n2C [AZD7648] + CN(C)CCCOc1ccc(-c2ccc3ncc4c(c3c2)n(C2CCOCC2)c(=O)n4C)cn1 [AZD0156] (first compound max 10 µM, 7x7, partner max 1 µM) | 0.0165 | 0.0385 | -0.0117 | -0.0099 | -0.0019 | 0.003 | -0.0058 | -0.0458 | -0.0369 | -0.0325 | 0.0157 | 0.0226 | 0.01 | -0.0408 | -0.0264 | 0.0091 | -0.0453 | 0.274 |
| CN(CCO)CC[C@H](CSc1ccccc1)Nc1ccc(S(=O)(=O)NC(=O)c2ccc(N3CCC([C@@H](O)c4ccccc4-c4ccc(Cl)cc4)CC3)cc2)cc1S(=O)(=O)C(F)(F)F [AZD4320] + CC(=O)O[C@H]1C(=O)[C@@]2(C)[C@H]([C@H](OC(=O)c3ccccc3)[C@]3(O)C[C@H](OC(=O)[C@H](O)[C@@H](NC(=O)c4ccccc4)c4ccccc4)C(C)=C1C3(C)C)[C@]1(OC(C)=O)CO[C@@H]1C[C@@H]2O [Paclitaxel] (first compound max 1 µM, 7x7, partner max 3 µM) | 0.0759 | – | – | – | 0.0889 | 0.107 | – | 0.131 | 0.0195 | 0.0574 | – | – | – | – | – | 0.167 | 0.107 | – |
| COc1cc2ncnc(Nc3ccc(F)c(Cl)c3)c2cc1OCCCN1CCOCC1 [Gefitinib] + CC(C)n1c(=O)n(C)c2cnc3cc(F)c(-c4ccc(OCCCN5CCCCC5)nc4)cc3c21 [AZD1390] (first compound max 10 µM, 7x7, partner max 0.3 µM) | -0.0544 | -0.065 | -0.0549 | – | -0.0519 | -0.0368 | -0.0185 | 0.0145 | -0.0374 | -0.0831 | -0.0817 | -0.0456 | -0.0701 | -0.029 | -0.0495 | -0.0289 | -0.0191 | – |
| N#Cc1cnc(Nc2cc(NC[C@H]3CNCCO3)c(C(F)(F)F)cn2)cn1 [SRA737] + CCc1c2c(nc3ccc(O)cc13)-c1cc3c(c(=O)n1C2)COC(=O)[C@]3(O)CC [SN-38] (first compound max 10 µM, 7x7, partner max 0.3 µM) | -0.0288 | – | – | – | 0.0451 | -0.0762 | – | -0.0331 | -0.035 | -0.0221 | – | – | – | – | – | -0.0243 | -0.0418 | – |
| N#Cc1cnc(Nc2cc(NC[C@H]3CNCCO3)c(C(F)(F)F)cn2)cn1 [SRA737] + Nc1ccn([C@@H]2O[C@H](CO)[C@@H](O)C2(F)F)c(=O)n1 [Gemcitabine] (first compound max 10 µM, 7x7, partner max 0.3 µM) | 0.0398 | – | – | – | 0.125 | -0.0986 | – | -0.0085 | -0.0009 | 0.0307 | – | – | – | – | – | 0.0521 | -0.0041 | – |
| C[C@@H](c1ccc2nccn2c1)n1nnc2ncc(-c3cnn(C)c3)nc21 [Savolitinib] + CC1(C)CCC(CN2CCN(c3ccc(C(=O)NS(=O)(=O)c4ccc(NCC5CCOCC5)c([N+](=O)[O-])c4)c(Oc4cnc5[nH]ccc5c4)c3)CC2)=C(c2ccc(Cl)cc2)C1 [Venetoclax] (first compound max 1 µM, 7x7, partner max 1 µM) | -0.0463 | -0.0215 | -0.0534 | – | -0.041 | -0.0338 | -0.012 | -0.0732 | -0.0423 | -0.0805 | -0.119 | -0.0486 | -0.0821 | -0.0759 | -0.0258 | -0.0034 | -0.013 | – |
| Cc1cc2ncnn2cc1Nc1ncc2c(n1)n(C1CCOCC1)c(=O)n2C [AZD7648] + COc1cc([C@@H]2c3cc4c(cc3[C@@H](O[C@@H]3O[C@@H]5CO[C@@H](C)O[C@H]5[C@H](O)[C@H]3O)[C@H]3COC(=O)[C@H]23)OCO4)cc(OC)c1O [Etoposide] (first compound max 10 µM, 7x7, partner max 10 µM) | 0.119 | – | – | – | 0.116 | 0.0402 | – | 0.125 | 0.0299 | 0.0438 | – | – | – | – | – | 0.0043 | 0.0478 | – |
| Cc1nc(Nc2ncc(C(=O)Nc3c(C)cccc3Cl)s2)cc(N2CCN(CCO)CC2)n1 [Dasatinib] + CC(=O)Nc1cccc(-n2c(=O)n(C3CC3)c(=O)c3c(Nc4ccc(I)cc4F)n(C)c(=O)c(C)c32)c1 [Trametinib] (first compound max 2 µM, 7x7, partner max 1 µM) | 0.0736 | 0.0346 | -0.0524 | – | 0.0589 | -0.0198 | 0.0148 | 0.052 | 0.0567 | 0.141 | -0.0685 | -0.0594 | -0.0263 | 0.0323 | -0.0386 | 0.0975 | -0.132 | – |
| C[C@@H](c1ccc2nccn2c1)n1nnc2ncc(-c3cnn(C)c3)nc21 [Savolitinib] + CN(CC[C@H](CSC1=CC=CC=C1)NC2=C(C=C(C=C2)S(=O)(=O)NC(=O)C3=CC=C(C=C3)N4CCC(CC4)[C@H](C5=CC=CC=C5C6=CC=C(C=C6)Cl)O)S(=O)(=O)C(F)(F)F)CCO [AZD4320] (first compound max 1 µM, 7x7, partner max 1 µM) | -0.0463 | -0.0212 | -0.0354 | – | – | -0.0103 | -0.0374 | – | – | – | -0.0585 | -0.0238 | -0.0597 | -0.0348 | -0.08 | – | – | – |

— the supplement of paper PMC11061612
